The values that follow come from US20230234917A1, “ASPARAGINE DERIVATIVES AND METHODS OF USING SAME” (priority 2020, published 2023).

The target of experiment [1] is T1, ClbP (Escherichia coli, UniProt Q0P7K6). In words: ClbP whole cell activity (inhibition) assay, fluorogenic substrate. The experiment is classed as cell-based, E. coli. On the procedure: Whole Cell Activity Assay
(§1) 1) E. coli ClbP+ were taken from a frozen stock and streaked onto BHI plates. They were grown aerobically at 37° C. overnight in the incubator.
(§2) 1) A single colony was selected from the plate and inoculated into 30 mL LB in a 50 mL conical vial eight times (240 mL total). The bacteria were grown aerobically overnight (16-20 h) at 37° C. on a nutator with rocking.
1) The saturated overnight culture was centrifuged to create a firm pellet (3,200 g, 10 min, 4° C.). In a biosafety cabinet, the supernatant was removed and then the pellet was resuspended in 30 mL sterile PBS.
2) The bacteria were centrifuged again (3,200 g, 10 min, 4° C.). The supernatant was removed, and the pellet was resuspended in sterile PBS buffer (6 mL) in each of the 8 tubes. This fivefold concentrated bacterial solution was the working solution.
3) The bacterial working solution (192 μL) was mixed with inhibitor (6 μL, final concentration was 300, 100, 33.3, 11.1, 3.7, 1.2, 0.4, or 0 μM). Fluorogenic substrate (2 μL, final concentration 5 μM) was immediately added across the plate to initiate the reaction. As a control, each plate contained Compound No. III in this dose response curve. The bacterial concentration was fivefold concentrated compared to the original saturated overnight culture. Carryover from DMSO was 4% (v/v). All compounds were tested in singlicate.
4) The plate was loaded into a spectrophotometer preheated to 37° C. The fluorescence was recorded every 2 min for 46 min. The excitation wavelength was 360 nm (20 nm bandwidth), the emission wavelength was 460 nm (20 nm bandwidth), the optics position was bottom, the gain was 65, the light source was a tungsten bulb, and the read speed was normal.
5) The linear portion of the fluorescence increase was 10-30 min. The rate of fluorescence increase (A.U./min) for each well in an inhibitor series was normalized to the 0 μM inhibitor condition. The normalized activity as a function of inhibitor concentration was then fit to a three parameter IC50 curve in Graphpad Prism.
(§3) “A” indicates an IC50 value less than 100 μM, “B” indicates an IC50 between 100 and 300 μM, “C” indicates an IC50 above 300 μM.

Experiment [2] has as its target T1, ClbP. In words: ClbP cell lysate activity (inhibition) assay, fluorogenic substrate. In kind it is biochemical. As to conditions: ClbP Lysate Inhibition Assay: IC50, E. coli ClbP+ lysozyme-EDTA lysates, 5 μM fluorogenic substrate, inhibitor 0-300 μM, 37° C., singlicate. Here is the method:
Cell Lysate Activity Assay
as §1, §2
1) The saturated overnight culture was centrifuged to create a firm pellet (3,200 g, 10 min, 4° C.). The supernatant was removed and then the pellet was resuspended in 30 mL sterile PBS.
2) The bacteria were centrifuged again (3,200 g, 10 min, 4° C.). The supernatant was removed, and the pellet was resuspended in sterile PBS buffer (3 mL) in each 8 tubes to make a tenfold concentrated bacterial solution.
3) A lysozyme-EDTA (LE) solution was made in ddH2O (0.05 mg/mL lysozyme, 0.25 M EDTA).
4) For each of the eight tubes, LE solution (3 mL) was mixed with concentrated bacterial solution (3 mL). This mixture was incubated at 37° C. for 30 min to generate the lysates.
5) The lysates (192 μL) were mixed with inhibitor (6 μL, final concentration was 300, 100, 33.3, 11.1, 3.7, 1.2, 0.4, or 0 μM). Fluorogenic substrate (2 μL, final concentration 5 μM) was immediately added across the plate to initiate the reaction. As a control, each plate contained Compound No. III in this dose response curve. The final concentration of bacterial lysates was fivefold concentrated compared to the original saturated overnight culture. Carryover from DMSO was 4% (v/v). All compounds were tested in singlicate.
6) The plate was loaded into a spectrophotometer preheated to 37° C. The fluorescence was recorded every 2 min for 46 min. The excitation wavelength was 360 nm (20 nm bandwidth), the emission wavelength was 460 nm (20 nm bandwidth), the optics position was bottom, the gain was 65, the light source was a tungsten bulb, and the read speed was normal.
7) The linear portion of the fluorescence increase was 0-20 min. The rate of fluorescence increase (A.U./min) for each well in an inhibitor series was normalized to the 0 μM inhibitor condition. The normalized activity as a function of inhibitor concentration was then fit to a three parameter IC50 curve in Graphpad Prism.
as §3

In a further experiment the target is Full-length WT ClbP (Escherichia coli, UniProt Q0P7K6). In words: ClbP molecular (purified protein) enzymatic inhibition assay, fluorogenic substrate. The experiment is classed as biochemical, E. coli. On the procedure: ClbP Molecular (Purified Protein) Assay
1) Full-length WT ClbP was thawed on ice. A diluted enzyme solution (2 nM) was made by mixing 3.57 μL of enzyme with 20 mL of reaction buffer (50 mM Tris pH 8.0, 200 mM NaCl, 0.02% (w/v) n-dodecyl-b-D-maltoside (DDM)).
2) In a 96 well plate, the diluted protein solution (73.5 μL) was mixed with inhibitor (1.5 μL, of varying concentrations, see below) and preincubated for 15 min at room temperature. Then, reaction buffer (75 μL) containing 10 μM fluorogenic substrate was added to initiate the reaction. After addition of substrate, the final concentrations were 1 nM full-length WT ClbP, 5 μM fluorogenic substrate in 50 mM Tris pH 8.0, 200 mM NaCl, 0.02% (w/v) DDM, with either 0, 0.14, 0.41, 1.2, 3.7, 11, 33, or 100 μM inhibitor. For all conditions, the DMSO carryover was 2% (v/v) at the preincubation stage and 1% in the reaction stage. Compound No. III was always present as a control in each plate, and all compounds were tested in singlicate. In previous assays, the Km of the fluorogenic substrate was determined to be approximately 5 μM.
3) Immediately after addition of substrate to enzyme, the plate was transferred into a spectrophotometer held at room temperature. The fluorescence was recorded every 1.5 min for 15 min. The excitation wavelength was 360 nm (20 nm bandwidth), the emission wavelength was 440 nm (20 nm bandwidth), the optics position was bottom, the gain was extended, the light source was a xenon flash lamp, and the read speed was normal.
4) The linear portion of the fluorescence increase is at least from 0-6 min, so this time regime is used. The rate of fluorescence increase (A.U./min) for each well in an inhibitor series was normalized to the 0 μM inhibitor condition. The normalized activity as a function of inhibitor concentration was then fit to a three parameter IC50 curve in Graphpad Prism.
as §3

Where only a bound is given, the exact number is not on record here.

Regarding `O=C(C[C@@H](NC(=O)CCCC1CCCC1)C(=O)NCCc1ccc(O)cc1)NO` [Compound CCXCIX], the 50% inhibitory concentration (IC50) against ClbP [1], against ClbP [2] and against Full-length WT ClbP was below 100 µM each time.

For `CCCCCCCC(=O)N[C@H](CC(N)=O)C(=O)NCCc1ccc(C(=O)O)cc1` [Compound CXCVIII], the IC50 against ClbP [1] was below 100 µM; at ClbP [2] it was 100 to 300 µM; against Full-length WT ClbP, below 100 µM.

Consider `CCCCCCCCCCCC(=O)N[C@H](CC(N)=O)C(=O)NCCc1ccccn1` [Compound CCCX], for which the values for the IC50 against ClbP [1], against ClbP [2] and against Full-length WT ClbP were above 300 µM, below 100 µM and below 100 µM, respectively.

In the case of `CCCCCCCCCCCC(=O)N[C@H](CC(N)=O)C(=O)NCCc1ccc(O)cc1` [Compound CCCVII], the half-inhibitory concentration (IC50) on ClbP [1], at ClbP [2] and on Full-length WT ClbP was below 100 µM throughout.

Consider `CCCCCCCC(=O)N[C@H](CC(N)=O)C(=O)NCCc1ccc(=O)[nH]c1` [Compound CCXXXV], for which the figures for the IC50 against ClbP [1], against ClbP [2] and at Full-length WT ClbP were below 100 µM, above 300 µM and below 100 µM, respectively.

As for `CCCCCCCC(=O)N[C@H](CC(N)=O)C(=O)O[C@@H](C)C(=O)OC` [Compound LXXVI], the values for the IC50 on ClbP [1], against ClbP [2] and on Full-length WT ClbP were below 100 µM, below 100 µM and 100 to 300 µM, respectively.

As for `CCCCCCCC(=O)N[C@H](CC(N)=O)C(=O)NCCn1cnnc1` [Compound CCXXXIV], the half-inhibitory concentration (IC50) against ClbP [1] was below 100 µM; against ClbP [2], above 300 µM; at Full-length WT ClbP it was 100 to 300 µM.

For `CCCCCCCC(=O)N[C@H](CC(N)=O)[C@@H](O)CCCc1ccccc1` [Compound CXCI], the IC50 is below 100 µM on ClbP [1], 100 to 300 µM against ClbP [2] and 100 to 300 µM against Full-length WT ClbP.

Turning to `CCCCCCCC(=O)N[C@@H](CN[C@@H](C)C(=O)OC)CC(N)=O` [Compound CCLXXX], the IC50 was above 300 µM at ClbP [1], above 300 µM against ClbP [2] and 100 to 300 µM against Full-length WT ClbP.

For the molecule `CCCCCCCC(=O)N[C@H](CC(N)=O)C(=O)NC[C@@H](C)c1ccccc1` [Compound CCCII], the half-maximal inhibitory concentration (IC50) against ClbP [1], against ClbP [2] and against Full-length WT ClbP was below 100 µM throughout.

In the case of `CCCCCCCC(=O)N[C@H](CC(N)=O)C(=O)NCCc1ccncc1` [Compound CCVIII], the concentration for half-maximal inhibition (IC50) against ClbP [1], at ClbP [2] and at Full-length WT ClbP was below 100 µM in each case.

In the case of `CCCCCCCC(=O)N[C@@H](/C=C/C(=O)OCC)CC(N)=O` [Compound CCLXXIII], the IC50 against ClbP [1] was above 300 µM; at ClbP [2], above 300 µM; at Full-length WT ClbP, 100 to 300 µM.

Consider `NC(=O)C[C@@H](NC(=O)CCCC1CCCCC1)C(=O)NCCc1ccc(O)cc1` [Compound CCXXII], for which the 50% inhibitory concentration (IC50) against ClbP [1], on ClbP [2] and at Full-length WT ClbP was below 100 µM each time.

Regarding `CCCCCCCC(=O)N[C@H](CC(N)=O)C(=O)NCCc1c[nH]cn1` [Compound CCXXVII], the IC50 on ClbP [1], against ClbP [2] and on Full-length WT ClbP was below 100 µM throughout.

As to `NC(=O)C[C@@H](NC(=O)CCCC1CCCC1)C(=O)NCCc1ccccc1` [Compound CCLXIII], the IC50 on ClbP [1], on ClbP [2] and at Full-length WT ClbP was below 100 µM in each case.

Regarding `CCCCCCCC(=O)N[C@H](CC(N)=O)C(=O)NCCc1ccccc1O` [Compound CCXXIV], the half-inhibitory concentration (IC50) against ClbP [1], on ClbP [2] and against Full-length WT ClbP was below 100 µM each time.

`CCCCCCCC(=O)N[C@H](CC(N)=O)C(=O)NCCc1cccc(OC)c1` [Compound CCXLVIII]: the IC50 against ClbP [1] is 100 to 300 µM; against ClbP [2], below 100 µM; on Full-length WT ClbP, below 100 µM.

`CCCCCCCC(=O)N[C@H](CC(N)=O)C(=O)NCCc1ccc(O)cc1` [Compound CC] returned an IC50 against Full-length WT ClbP below 100 µM.

For `CCCCCCCNC(=O)[C@H](CC(N)=O)NC(=O)OCC` [Compound XCIX], the 50% inhibitory concentration (IC50) against ClbP [1] and on ClbP [2] was above 300 µM throughout.

On to `CCCCCC(=O)N[C@H](CC(N)=O)C(=O)NCCc1ccc(C(F)(F)F)cc1` [Compound CCLIX], for which the IC50 at ClbP [2] and against Full-length WT ClbP was 100 to 300 µM throughout.

The IC50 is the concentration needed to halve the response being measured. A higher IC50 goes with a need for much substance.
